Test results published in publication PMC7127030 (Bioorganic & Medicinal Chemistry Letters, 2009).

Experiments:
[1] = biological target: T1, SCV Hel duplex DNA-unwinding activity (Severe acute respiratory syndrome coronavirus, UniProt P0C6X7); type: biochemical, SARS coronavirus
[2] = biological target: T1, SCV Hel duplex DNA-unwinding activity; details: read-out: IC50 SCV Hel duplex DNA-unwinding; cited from earlier work

For `O=C(O)/C(O)=C/C(=O)c1ccc(OCc2ccc(Cl)cc2)cc1` [Compound 2], the “inhibition of helicase duplex DNA-unwinding activity” value [1] was “neither 2 nor 3 showed inhibition”.

In the case of `O=C(O)/C(O)=C/C(=O)c1cccc(OCc2ccccc2)c1` [Compound 3], the “inhibition of helicase duplex DNA-unwinding activity” value [1] is reported as “neither 2 nor 3 showed inhibition”.

In the case of `COc1cc(C23OC4(O)CC(O)(CC(O)(C4)O2)O3)ccc1O` [vanillinbananin], the IC50 [2] is listed as 2700 nM.
